Counter-ions that a name gives are not always drawn.
Key:
[1] = solubility of sildenafil forms in water; type: physicochemical
solubility in saliva = type: physicochemical

solubility in water ([1]; water)	solubility in saliva (solubility in saliva)	solubility of salt form ([1]; medium not stated)	SMILES
extremely low solubility	extremely low solubility	–	CCCc1nn(C)c2c(=O)[nH]c(-c3cc(S(=O)(=O)N4CCN(C)CC4)ccc3OCC)nc12 [sildenafil free base, 5-[2-ethoxy-5-(4-methylpiperazin-1-ylsulphonyl)-phenyl] -1,6-dihydro-1-methyl-3-propylpyrazolo [4,3-d]pyrimidin-7-one]
–	–	highly soluble	CCCc1nn(C)c2c(=O)[nH]c(-c3cc(S(=O)(=O)N4CCN(C)CC4)ccc3OCC)nc12 [sildenafil citrate]

Reference: patent publication US20020002172A1, “PHARMACEUTICAL FORMULATIONS” (priority 1998, published 2002)
